From ChEMBL document CHEMBL3627610 (Eur J Med Chem, 2015)
The source made the active and inactive calls. No cut-off for these calls is given here.

Experiments:
[1] = species: Xenopus laevis; experiment: Agonist activity at melatonin receptor in Xenopus laevis melanophores assessed as effect on pigment aggregation at 10^-5 M after 60 mins by microtiter plate reader assay
[2] = species: Xenopus laevis; experiment: Antagonist activity at melatonin receptor in Xenopus laevis melanophores assessed as effect on pigment aggregation at 10^-4 M after 60 mins by microtiter plate reader assay
[3] = species: Xenopus laevis; experiment: Agonist activity at melatonin receptor in Xenopus laevis melanophores assessed as effect on pigment aggregation at 10^-12 to 10^-5 M after 60 mins by microtiter plate reader assay
[4] = Agonist activity at melatonin receptor in Xenopus laevis melanophores assessed as effect on pigment aggregation after 60 mins by microtiter plate reader assay
[5] = biological target: Melatonin receptor type 1A (Homo sapiens, UniProt P48039); experiment: Displacement of 2-[125I]iodomelatonin from human recombinant MT1 expressed in CHO cell membranes incubated for 60 mins by liquid scintillation spectrometry
Melatonin receptor type 1A, sequence (P48039 whole entry): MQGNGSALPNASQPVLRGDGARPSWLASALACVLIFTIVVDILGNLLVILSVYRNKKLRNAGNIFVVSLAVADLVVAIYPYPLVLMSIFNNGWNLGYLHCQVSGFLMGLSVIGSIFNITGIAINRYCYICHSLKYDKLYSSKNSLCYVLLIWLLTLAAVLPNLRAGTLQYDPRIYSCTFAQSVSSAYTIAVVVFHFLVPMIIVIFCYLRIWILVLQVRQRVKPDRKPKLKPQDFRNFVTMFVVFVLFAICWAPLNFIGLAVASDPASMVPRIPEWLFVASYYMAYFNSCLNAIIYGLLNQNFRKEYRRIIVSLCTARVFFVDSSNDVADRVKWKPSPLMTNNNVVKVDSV

[6] = biological target: T1, Melatonin receptor type 1B (Homo sapiens, UniProt P49286); experiment: Displacement of 2-[125I]iodomelatonin from human recombinant MT2 expressed in CHO cell membranes incubated for 120 mins by liquid scintillation spectrometry
T1 sequence (P49286 whole entry): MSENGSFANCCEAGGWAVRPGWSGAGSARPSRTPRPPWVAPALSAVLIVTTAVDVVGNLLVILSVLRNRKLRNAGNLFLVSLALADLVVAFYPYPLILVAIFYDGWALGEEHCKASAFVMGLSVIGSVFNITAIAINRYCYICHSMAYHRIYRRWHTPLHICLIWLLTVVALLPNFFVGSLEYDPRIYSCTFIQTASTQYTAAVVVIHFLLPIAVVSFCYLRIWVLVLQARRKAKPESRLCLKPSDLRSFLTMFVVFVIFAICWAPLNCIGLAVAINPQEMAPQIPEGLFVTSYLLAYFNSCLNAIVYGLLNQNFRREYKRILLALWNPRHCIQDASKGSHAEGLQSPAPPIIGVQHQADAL

Activity [1]	inhibition [2]	Emax [3]	EC50 [4]	Ki [5]	Ki [6]	SMILES
inactive	Active	–	–	–	–	COc1ccc2c(CCCNC(C)=O)cc(=O)oc2c1
–	Active	89%	118 nM	13 nM	3.4 nM	COc1ccc2oc(=O)cc(CCNC(C)=O)c2c1
–	–	100%	0.074 nM	–	–	COc1ccc2[nH]cc(CCNC(C)=O)c2c1 [MELATONIN]
